Laboratory results reported in patent US4268630A, “Microbiological production of ketones from C3 -C6 alkanes” (priority 1979, dated 1981).
Entries after “also recorded” stand apart in the source; their conditions may differ. Like-named read-outs stand apart in the source and are kept apart here.

How the values were obtained:
[1] = tested on: cell-free particulate fraction of methane-grown methylotrophs; experiment: Conversion of n-alkanes to sec. alcohols by cell-free particulate fractions: inhibitors and electron donors; format: biochemical
Source text: The conditions for preparing the cell suspensions or the cell-free particulate fractions from methane-grown methylotroph microorganisms is the same as described above.

[2] = tested on: secondary alcohol dehydrogenase; experiment: Activity of purified yeast-derived secondary alcohol dehydrogenase; format: biochemical, Pichia sp. NRRL Y-11,328; conditions: for inhibition of secondary alcohol dehydrogenase activity (in words): primary alcohols tested at 10^-3 M
[3] = tested on: secondary alcohol dehydrogenase (SADH); experiment: Activity of purified secondary alcohol dehydrogenase (inhibition, substrate specificity, Km); format: biochemical, Pseudomonas sp. ATCC 21439; conditions: for relative percent rate of oxidation: 2-butanol = 100%; for % inhibition of SADH activity: each inhibitor at a final concentration of 1 mM, spectrofluorometric
Experimental: Secondary alcohol dehydrogenase (SADH) from an obligate methanol utilizer, Pseudomonas sp. ATCC 21439 was purified as follows. […] 0.05 M sodium phosphate buffer, pH 7.0 with 0.5 mM dithiothretol (buffer A) and were disrupted sonically (5×1 min.). The crude extract was separated by centrifugation. The crude extract was heat-treated at 50° C. in a water bath for 10 minutes. The resulting precipitate was removed by centrifugation. To the supernatant solution, 25 ml of protamine sulfate solution (2% solution in 0.1 M Tris base) was added dropwise with continuous stirring. After standing for 30 minutes, the extract was centrifuged. The supernatant solution was fractionated with solid ammonium sulfate. The material precipitating between 30 and 60% saturation was collected and was dialized overnight against buffer A. The The dialized material was applied to a DEAE-cellulose column (3 cm by 35 cm) that had been equilibrated with buffer A. The secondary alcohol dehydrogenase activity was eluted in the void volume. This DEAE-cellulose eluate was concentrated by ammonium sulfate fractionation. Material precipitating between 30 and 50% ammonium sulfate saturation was collected by centrifugation and dialyzed overnight against A. This fraction was further washed and filtered through an Amicon unit with XM 50 membrane. The concentrated fraction (6 ml) inside the Amicon unit was applied to an Affi-Gel Blue column (0.8 cm×18 cm) which had been equilibrated with buffer A for affinity chromatography. The column was washed overnight with buffer A (0.18 ml./min.) and then was eluted with buffer A containing 5 mM NAD. Each 1 ml. fraction was collected.
The purified secondary alcohol dehydrogenase enzyme (SADH) may be used directly for converting C3 -C6 secondary alcohols to the corresponding methyl ketones by the procedures described above; however, a source of NAD^+ must be added to the reaction medium. One can determine the NAD-linked secondary alcohol dehydrogenase activity with a fluorescence spectrophotometer (Perkin Elmer, Model MPF 44A) by following the formation of reduced NAD (Ex 340 nm, Em 460 nm). The assay system (3 ml.) will typically contain: sodium phosphate buffer pH 7.0, 150 μmol; NAD 1.0 μmol; a given amount of enzyme preparation; and 20 μmol secondary alcohol. The reaction is started by the addition of secondary alcohol. One unit of SADH enzyme activity represents the reduction of one nmole NAD per minute.
The effect of metal-chelating agents and thioreagents on the activity of the purified SADH enzyme were studied. […] The possibility of ethanol or n-propanol as an inhibitor was studied.

[4] = tested on: Methylosinus trichosporium OB3b NRRL B-11,196; experiment: Conversion of n-alkanes to oxidation products by cell suspensions; format: cell-based; conditions: methane-grown cell suspension, pH 7.0
Experimental: (§1) ^(a) Cell-suspensions of methanegrown methylotroph microorganisms
(§2) indicated in 0.15 M phosphate buffer, pH 7.0 incubated in the alkanes as
(§3) indicated at 3° C. The oxidation products were determined by g.l.c

[5] = tested on: Methylococcus capsulatus CRL M1 NRRL B-11,219; experiment: as above; format: cell-based; conditions: methane-grown cell suspension, pH 7.0
Experimental: as §1, §2, §3

[6] = tested on: cell suspensions of C1-utilizers; experiment: Production of 2-butanone from 2-butanol / sec-alcohol oxidation by cell suspensions of the strains tested; format: cell-based; conditions: for inhibition of production of 2-butanone from 2-butanol (in words): cell suspensions of the strains tested
Source text: The substrate specificity for the oxidation of C3 -C6 secondary alcohols by the strains of C1 -utilizers was studied.

Compound: Oc1cccc2cccnc12 [8-hydroxyquinoline]
- inhibition of conversion of n-alkanes to sec. alcohols (in words) [1]: inhibited

Compound: CC(O)CO (centres unmarked) [1,2-propandiol]
- substrate specificity of purified yeast secondary alcohol dehydrogenase (in words) ([2]; spectrophotometric): not oxidized

Compound: CCO [ethanol]
- inhibition of SADH activity (in words) [3]: did not inhibit
- substrate specificity of purified yeast secondary alcohol dehydrogenase (in words) [2]: not oxidized

Compound: CC(O)CCO (centres unmarked) [butane 1,3-diol]
- substrate specificity of purified SADH (in words) [3]: lower rate
- relative percent rate of oxidation [3]: 2%
- substrate specificity of purified yeast secondary alcohol dehydrogenase (in words) ([2]; spectrophotometric): not oxidized

Compound: [Fe+2] [ferrous, reference compound]
- % inhibition of SADH activity [3]: 50%

Compound: [Zn+2] [Zn^++, reference compound]
- stimulation of SADH activity by exogenous zinc [3]: did not stimulate
- % inhibition of SADH activity [3]: 0%

Compound: [Mn+2] [Mn^++, reference compound]
- % inhibition of SADH activity [3]: 0%

Compound: CC [Ethane]
- Conversion Rate to product Ethanol [4]: 1.3 μmoles/hr./mg./protein
- Conversion Rate to product Ethanol [5]: 2.0 μmoles/hr./mg./protein

Compound: [N-]=[N+]=[N-] [Sodium azide, reference compound]
- % inhibition of SADH activity [3]: 10%

Compound: NC(N)=S [Thiourea, reference compound]
- inhibition of production of 2-butanone from 2-butanol (in words) [6]: not inhibited
- % inhibition of SADH activity [3]: 0%
- inhibition of SADH activity (in words) ([3]; purified SADH): not inhibited
- inhibition of conversion of n-alkanes to sec. alcohols (in words) [1]: inhibited

Compound: CO [methanol]
- substrate specificity of purified yeast secondary alcohol dehydrogenase (in words) ([2]; spectrophotometric): not oxidized

Compound: N#C[S][Hg][S]C#N [mercuric thiocyanate, reference compound]
- inhibition of secondary alcohol dehydrogenase activity (in words) [2]: inhibited

Compound: CCN1C(=O)C=CC1=O [N-ethylmalemide, N-ethylmaleimide, reference compound]
- % inhibition of SADH activity [3]: 6%
- inhibition of SADH activity (in words) ([3]; purified SADH): not inhibited

Compound: O=C(O)c1cc[c]([Hg+])cc1.[OH-] [p-hydroxymercuribenzoate, reference compound]
- % inhibition of SADH activity [3]: 100%
- inhibition of secondary alcohol dehydrogenase activity (in words) [2]: strongly inhibited

Compound: [Mg+2] [Mg^++, reference compound]
- % inhibition of SADH activity [3]: 0%

Compound: NC(=O)C1=CN([C@@H]2O[C@H](COP(=O)(O)OP(=O)(O)OC[C@H]3O[C@@H](n4cnc5c(N)ncnc54)[C@H](O)[C@@H]3O)[C@@H](O)[C@H]2O)C=CC1 [NADH, reduced nicotinamide adenine dinucleotide]
- use as electron donor for hydroxylation of n-alkanes [1]: requires

Compound: OC1CCCCC1 [cyclohexanol]
- substrate specificity of purified SADH (in words) [3]: lower rate
- relative percent rate of oxidation [3]: 4%

Compound: O=[N+]([O-])[O-].[Ag+] [silver nitrate, reference compound]
- inhibition of secondary alcohol dehydrogenase activity (in words) [2]: inhibited

Compound: [Fe+3] [ferric, reference compound]
- % inhibition of SADH activity [3]: 35%

Compound: CCCCCO [pentan-1-ol]
- substrate specificity of purified yeast secondary alcohol dehydrogenase (in words) ([2]; spectrophotometric): not oxidized

Compound: CCCO [propanol]
- substrate specificity of purified SADH (in words) [3]: lower rate
- relative percent rate of oxidation [3]: 2%

Compound: CC(C)CO [isobutanol]
- substrate specificity of purified SADH (in words) [3]: not oxidized

Compound: NNC(N)=S [thiosemicarbazide]
- inhibition of conversion of n-alkanes to sec. alcohols (in words) [1]: inhibited

Compound: CCCO [n-propanol]
- inhibition of SADH activity (in words) [3]: did not inhibit
- substrate specificity of purified yeast secondary alcohol dehydrogenase (in words) [2]: not oxidized

Compound: CCCCCCC(C)O (centres unmarked) [2-octanol]
- substrate specificity of purified yeast secondary alcohol dehydrogenase (in words) ([2]; spectrophotometric): not oxidized

Compound: CCC(O)CO (centres unmarked) [butane 1,2-diol]
- substrate specificity of purified SADH (in words) [3]: not oxidized
- substrate specificity of purified yeast secondary alcohol dehydrogenase (in words) ([2]; spectrophotometric): not oxidized

Compound: CC(O)C(C)O (centres unmarked) [butane 2,3-diol]
- substrate specificity of purified SADH (in words) [3]: lower rate
- relative percent rate of oxidation [3]: 2.5%

Compound: C=O [formaldehyde]
- substrate specificity of purified SADH (in words) [3]: not oxidized

Compound: c1c[nH]cn1 [imidiazole, reference compound]
- inhibition of secondary alcohol dehydrogenase activity (in words) [2]: strongly inhibited

Compound: cytochrome c [reference compound]
- ability to act as electron acceptor/carrier ([2]; purified enzyme): could not act as electron carrier

Compound: O=C(O)CI [iodoacetic acid, reference compound]
- inhibition of SADH activity (in words) [3]: not inhibited

Compound: CC=O [acetaldehyde]
- substrate specificity of purified SADH (in words) [3]: lower rate
- relative percent rate of oxidation [3]: 4%

Compound: O=S(=O)([O-])[O-].[Cu+2] [cupric sulfate, reference compound]
- inhibition of secondary alcohol dehydrogenase activity (in words) [2]: inhibited

Compound: CCCCCC(C)O (centres unmarked) [2-heptanol]
- substrate specificity: rate of oxidation of secondary alcohols (in words) ([6]; cell suspensions of C1-utilizers): oxidized at a much slower rate
- substrate specificity of purified yeast secondary alcohol dehydrogenase (in words) ([2]; spectrophotometric): not oxidized

Compound: c1ccc(-c2ccccn2)nc1 [α,α-bipyridyl, reference compound]
- inhibition of production of 2-butanone from 2-butanol (in words) [6]: inhibited
- % inhibition of SADH activity [3]: 70%
- inhibition of conversion of n-alkanes to sec. alcohols (in words) [1]: inhibited

Compound: C=CC [propylene]
- inhibition of conversion of n-alkanes to sec. alcohols (in words) [1]: inhibited
- inhibition of conversion of n-alkanes to sec. alcohols (in words) ([1]; listed as Propylene): inhibit

Compound: CCCCO [butan-1-ol]
- substrate specificity of purified yeast secondary alcohol dehydrogenase (in words) [2]: not oxidized

Compound: O=C(O)c1cc(SSc2ccc([N+](=O)[O-])c(C(=O)O)c2)ccc1[N+](=O)[O-] [5,5'-dithiobis(2-nitrobenzoic acid), reference compound]
- % inhibition of SADH activity [3]: 100%
- inhibition of SADH activity (in words) ([3]; purified SADH): inhibited

Compound: CCC(C)=O [2-Butanone, 2-butanone]
- product inhibition of 2-butanone production ([6]; exogenously supplied 2-butanone (8 μmoles) with viable cell suspensions): No product (2-butanone) inhibition; also recorded: did not inhibit
- inhibition of SADH activity (in words) ([3]; purified SADH): inhibited

Compound: c1cnc2c(c1)ccc1cccnc12 [1,10-phenanthroline, reference compound]
- inhibition of production of 2-butanone from 2-butanol (in words) [6]: inhibited
- % inhibition of SADH activity [3]: 95%
- inhibition of secondary alcohol dehydrogenase activity (in words) [2]: strongly inhibited
- inhibition of conversion of n-alkanes to sec. alcohols (in words) [1]: inhibited

Compound: O=C(O)CCC(=O)O [succinic acid]
- substrate specificity of purified SADH (in words) [3]: not oxidized

Compound: Oc1ccccc1 [phenol]
- substrate specificity of purified SADH (in words) [3]: not oxidized

Compound: NC(=O)C1=CN([C@@H]2O[C@H](COP(=O)(O)OP(=O)(O)OC[C@H]3O[C@@H](n4cnc5c(N)ncnc54)[C@H](OP(=O)(O)O)[C@@H]3O)[C@@H](O)[C@H]2O)C=CC1 [NADPH, reduced nicotinamide adenine dinucleotide phosphate]
- use as electron donor for hydroxylation of n-alkanes [1]: could also be utilized as an electron donor

Compound: [Cu+2] [cupric, reference compound]
- % inhibition of SADH activity [3]: 25%

Compound: [Ni+2] [nickel, reference compound]
- % inhibition of SADH activity [3]: 20%

Compound: O=Cc1ccccc1 [benzaldehyde]
- substrate specificity of purified SADH (in words) [3]: not oxidized

Compound: C [Methane]
- Conversion Rate to product Methanol ([4]; […] phosphate buffer): 1.5 μmoles/hr./mg./protein
- Conversion Rate to product Methanol [5]: 2.5 μmoles/hr./mg./protein

Compound: [Co+2] [Co^++, reference compound]
- % inhibition of SADH activity [3]: 0%
